Data from patent US10308644B2, “Heterocyclic compounds as immunomodulators” (Incyte Corporation, priority 2016, dated 2019).
pIC50: −log10 of the molar value.

target: PD-1/PD-L1 (Homo sapiens (Human), UniProt Q9NZQ7); experiment: PD-1/PD-L1 Homogeneous Time-Resolved Fluorescence (HTRF) Binding Assay; settings: recombinant human PD-1 (3 nM) and PD-L1 (10 nM), 25° C., PBS pH 7.4
Procedure: Example A. PD-1/PD-L1 Homogeneous Time-Resolved Fluorescence (HTRF) Binding Assay
The assays were conducted in a standard black 384-well polystyrene plate with a final volume of 20 μL. Inhibitors were first serially diluted in DMSO and then added to the plate wells before the addition of other reaction components. The final concentration of DMSO in the assay was 1%. The assays were carried out at 25° C. in the PBS buffer (pH 7.4) with 0.05% Tween-20 and 0.1% BSA. Recombinant human PD-L1 protein (19-238) with a His-tag at the C-terminus was purchased from AcroBiosystems (PD1-H5229). Recombinant human PD-1 protein (25-167) with Fc tag at the C-terminus was also purchased from AcroBiosystems (PD1-H5257). PD-L1 and PD-1 proteins were diluted in the assay buffer and 10 μL was added to the plate well. Plates were centrifuged and proteins were preincubated with inhibitors for 40 minutes. The incubation was followed by the addition of 10 μL of HTRF detection buffer supplemented with Europium cryptate-labeled anti-human IgG (PerkinElmer-AD0212) specific for Fc and anti-His antibody conjugated to SureLight®-Allophycocyanin (APC, PerkinElmer-AD0059H). After centrifugation, the plate was incubated at 25° C. for 60 min. before reading on a PHERAstar FS plate reader (665 nm/620 nm ratio). Final concentrations in the assay were—3 nM PD1, 10 nM PD-L1, 1 nM europium anti-human IgG and 20 nM anti-His-Allophycocyanin. IC50 determination was performed by fitting the curve of percent control activity versus the log of the inhibitor concentration using the GraphPad Prism 5.0 software.

Chain of PD-1/PD-L1 (Q9NZQ7 19-238): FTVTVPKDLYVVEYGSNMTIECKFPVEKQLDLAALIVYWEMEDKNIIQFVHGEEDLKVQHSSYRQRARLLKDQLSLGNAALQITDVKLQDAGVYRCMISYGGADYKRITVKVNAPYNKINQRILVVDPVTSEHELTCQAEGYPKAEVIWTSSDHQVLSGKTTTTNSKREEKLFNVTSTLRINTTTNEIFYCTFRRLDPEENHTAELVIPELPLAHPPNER

Compound	pIC50
Cc1c(NC(=O)c2nc3c(n2C)CCN(C[C@H](C)O)C3)cccc1-c1cccc(-c2nc3cc(CN4CC[C@H](C(=O)O)C4)cc(C#N)c3o2)c1C [Example 41, (S)-1-((7-cyano-2-(3′-(5-((S)-2-hydroxypropyl)-1-methyl-4,5,6,7-tetrahydro-1H-imidazo[4,5-c]pyridine-2-carboxamido)-2,2′-dimethylbiphenyl-3-yl)benzo[d]oxazol-5-yl)methyl)pyrrolidine-3-carboxylic acid]	≥ 8.00
Cc1c(Nc2nccc3cc(CNC[C@H](C)O)cnc23)cccc1-c1cccc(-c2nc3cc(CN4CCC(C(=O)O)CC4)cc(C#N)c3o2)c1C [Example 204, (S)-1-((7-cyano-2-(3′-(3-((2-hydroxypropylamino)methyl)-1,7-naphthyridin-8-ylamino)-2,2′-dimethylbiphenyl-3-yl)benzo[d]oxazol-5-yl)methyl)piperidine-4-carboxylic acid]	≥ 8.00
Cc1c(Nc2nccc3cc(CN4CC[C@@H](O)C4)cnc23)cccc1-c1cccc(-c2nc3cc(CN4CC[C@H](C(=O)O)C4)cc(C#N)c3o2)c1C [Example 28, (S)-1-((7-cyano-2-(3′-(3-(((R)-3-hydroxypyrrolidin-1-yl)methyl)-1,7-naphthyridin-8-ylamino)-2,2′-dimethylbiphenyl-3-yl)benzo[d]oxazol-5-yl)methyl)pyrrolidine-3-carboxylic acid]	≥ 8.00
Cc1c(Nc2nccc3cc(CN4CC[C@@H](O)C4)cnc23)cccc1-c1cccc(-c2nc3cc(CN[C@H]4C[C@H](C(=O)O)C4)cc(C#N)c3o2)c1C [Example 181, trans-3-((7-cyano-2-(3′-(3-(((R)-3-hydroxypyrrolidin-1-yl)methyl)-1,7-naphthyridin-8-ylamino)-2,2′-dimethylbiphenyl-3-yl)benzo [d]oxazol-5-yl)methylamino)cyclobutane carboxylic acid]	≥ 8.00
Cc1c(-c2nc3cc(CN4CC[C@@H](C(=O)O)C4)cc(C#N)c3o2)cccc1-c1cccc(-c2nc3c(s2)CNCC3)c1C [Example 72, (R)-1-((7-cyano-2-(2,2′-dimethyl-3′-(4,5,6,7-tetrahydrothiazolo[5,4-c]pyridin-2-yl)biphenyl-3-yl)benzo[d]oxazol-5-yl)methyl)pyrrolidine-3-carboxylic acid]	≥ 8.00
Cc1c(Nc2nccc3cc(CN4CC[C@H](O)C4)cnc23)cccc1-c1cccc(-c2nc3cc(CNCCC(=O)O)cc(Cl)c3o2)c1C [Example 20, (S)-3-((7-chloro-2-(3′-(3-((3-hydroxypyrrolidin-1-yl)methyl)-1,7-naphthyridin-8-ylamino)-2,2′-dimethylbiphenyl-3-yl)benzo[d]oxazol-5-yl)methylamino)propanoic acid]	≥ 8.00

Further lines, results first:

pIC50	Compound
≥ 8.00	Cc1c(Nc2ncnc3cc(CN4CCCC4)cnc23)cccc1-c1cccc(-c2nc3cc(CN4CC[C@@H](C(=O)O)C4)cc(C#N)c3o2)c1C [Example 209, (R)-1-((7-cyano-2-(2,2′-dimethyl-3′-(7-(pyrrolidin-1-ylmethyl)pyrido[3,2-d]pyrimidin-4-ylamino)biphenyl-3-yl)benzo[d]oxazol-5-yl)methyl)pyrrolidine-3-carboxylic acid]
≥ 8.00	Cc1c(-c2nc3cc(CN4CC[C@@H](C(=O)NS(C)(=O)=O)C4)cc(C#N)c3o2)cccc1-c1cccc(-c2nc3c(s2)CN(C(C)C)CC3)c1C [Example 238, (R)-1-((7-cyano-2-(3′-(5-isopropyl-4,5,6,7-tetrahydrothiazolo[5,4-c]pyridin-2-yl)-2,2′-dimethyl-[1,1′-biphenyl]-3-yl)benzo[d]oxazol-5-yl)methyl)-N-(methylsulfonyl)pyrrolidine-3-carboxamide]
≥ 8.00	Cc1c(-c2nc3cc(CN4CC[C@@](C)(C(=O)O)C4)cc(C#N)c3o2)cccc1-c1cccc(-c2nc3c(s2)CN(C(=O)CN2CC[C@@H](O)C2)C3)c1C [Example 222]
